According to patent publication US20170355956A1, “COMPOSITIONS FOR INCREASING SURVIVAL OF MOTOR NEURON PROTEIN (SMN) LEVELS IN TARGET CELLS AND METHODS OF USE THEREOF FOR THE TREATMENT OF SPINAL MUSCULAR ATROPHY” (RUTGERS, THE STATE UNIVERSITY OF NEW JERSEY, priority 2014, published 2017):

B1: wild type: wild type DcpS (scavenger decapping enzyme) used to complement DcpS knockdown cells (protein, UniProt Q96C86 2-337, looked up)
m7GpppX diphosphatase: ADAAPQLGKRKRELDVEEAHAASTEEKEAGVGNGTCAPVRLPFSGFRLQKVLRESARDKIIFLHGKVNEASGDGDGEDAVVILEKTPFQVEQVAQLLTGSPELQLQFSNDIYSTYHLFPPRQLNDVKTTVVYPATEKHLQKYLRQDLRLIRETGDDYRNITLPHLESQSLSIQWVYNILDKKAEADRIVFENPDPSDGFVLIPDLKWNQQQLDDLYLIAICHRRGIRSLRDLTPEHLPLLRNILHQGQEAILQRYRMKGDHLRVYLHYLPSYYHLHVHFTALGFEAPGSGVERAHLLAEVIENLECDPRHYQQRTLTFALRADDPLLKLLQEAQQS

Tests used:
Assay type in all cases: cell-based
[1] = test system: endogenous DcpS exon 4 splice site; experiment: Antisense splice switching of endogenous DcpS, splicing patterns by RT-PCR; settings: 293T cells
Description: FIG. 6. Splice switching of endogenous DcpS intron 4 to the DcpS^In15 alternative site. Vivo-morpholino antisense oligonucleotide (red line) was added to GM03813 cells and DcpS splicing tested. Schematic on lower right depicts the splicing pattern resulting with the indicated concentration of vivo-morpholino and arrows denote the primers used. Endogenous splicing is inhibited and shifted to the alternative site 45nt downstream as well as exon 4 skipping. Bottom panel is a control of exon2-exon3 junction not affected by the oligonucleotide. An exemplary antisense molecule comprises 5′ TTCCAGCCAGAAA CCTTTACCTGCT 3′ (SEQ ID NO: 1). However, antisense oligonucleotides can be designed to hybridize to the any contiguous 20-25 mer present in the DcpS variant sequence shown in FIG. 6.
Shifting of the endogenous DcpS gene to express the DcpS^In15 variant can also be accomplished by antisense oligonucleotide splice switching technology. With this approach, an antisense oligonucleotide complementary to the endogenous splice site is used to block the endogenous site and shift the splicing pattern to the DcpS^In15 pattern in SMA patient cells. The objective is to alter the endogenous DcpS splicing in order to generate sufficient levels of DcpS^In15 thereby elevating SMN2 gene expression and increasing levels of full length SMN protein. 293T cells were treated with 5 μM antisense morpholino oligonucleotide containing a cell permeable guanidinium based dendramer delivery system (vivo-morpholino; GeneTools LLC) for 24 hours and splicing patterns determined by RT-PCR. […] Instead ˜50% of the splicing utilizes the DcpS^In15 splice site 45 nucleotides downstream analogous to that observed in the homozygous DcpS^In15 ID patient cells, and ˜50% results in both sites being blocked and skipping of exon 4 entirely. In the latter case (lower panel in FIG. 6), splicing bypasses exon 4 and goes from exon 3 to exon 5. […] The invention also encompasses optimized oligonucleotide sequences comprising altered nucleotide backbones, and small molecules that can shift splicing to further improve levels of DcpS^In15, thereby elevating SMN2 levels and providing a therapeutic intervention for SMA patients.

fl-SMN2 mRNA = fl-SMN2 mRNA in GM03813 SMA patient cells expressing DcpS variants; settings: GM03813 cells knocked down for DcpS, stably expressing shRNA-resistant DcpS variant
Description: (§1) FIGS. 3A-3C. DcpS^In15 increases fl-SMN2 mRNA and SMN protein in GM03813 SMA patient cells. FIG. 3A. fl-SMN2 mRNA levels were tested in GM03813 cells knocked down for DcpS and stably expressing the indicated shRNA-resistant DcpS variants. […] (Average of three biological replicates) FIG. 3B. Western of SMN and DcpS proteins from cells used in A. (Average of two biological replicates). FIG. 3C. SMN protein levels increase in GM0813 cells expressing DcpS^In15 with a background of endogenous levels of DcpS protein.

SMN protein = experiment: Western of SMN protein in GM03813 SMA patient cells expressing DcpS variants; settings: background of reduced endogenous DcpS
Description: as §1

Molecule	splicing that utilizes the DcpS^In15 splice site 45 nucleotides downstream ([1]; 5 μM, 24 hours, RT-PCR) [%]	splicing with both sites blocked and skipping of exon 4 entirely ([1]; 5 μM, 24 hours, RT-PCR) [%]	utilization of the endogenous exon 4 splice site ([1]; 5 μM, 24 hours, RT-PCR)	level of DcpS^In15 mRNA ([1]; antisense oligonucleotide splice switching)	fl-SMN2 mRNA levels (fl-SMN2 mRNA)	SMN protein level (Western) (SMN protein)
5′ TTCCAGCCAGAAA CCTTTACCTGCT 3′ (antisense TTCCAGCCAGAAACCTTTACCTGCT; vivo-morpholino guanidinium dendrimer delivery moiety, chemistry not fully specified) [vivo-morpholino oligonucleotide, antisense morpholino oligonucleotide containing a cell permeable guanidinium based dendramer delivery system (vivo-morpholino; GeneTools LLC)]	~50	~50	completely inhibits	increased level	–	–
B1	–	–	–	–	not observed	not observed
